The text below walks through data of ChEMBL document CHEMBL2074201, “Cepharanthin, a multidrug resistant modifier, is a substrate for P-glycoprotein” (J Pharmacol Exp Ther, 1995).

Series [1] deals with T1, ATP-dependent translocase ABCB1 (Homo sapiens, UniProt P08183). Briefly: TP_TRANSPORTER: transepithelial transport (basal to apical) in MDR1-expressing LLC-PK1 cells. As to conditions: pig. The format is functional, cell-based.
Series [2] concerns the target T1, ATP-dependent translocase ABCB1. In words: TP_TRANSPORTER: inhibition of Daunorubicin transepithelial transport (basal to apical) (Daunorubicin: 0.1 uM) in MDR1-expressing LLC-PK1 cells. The format is functional, cell-based.

T1 sequence (P08183 whole entry): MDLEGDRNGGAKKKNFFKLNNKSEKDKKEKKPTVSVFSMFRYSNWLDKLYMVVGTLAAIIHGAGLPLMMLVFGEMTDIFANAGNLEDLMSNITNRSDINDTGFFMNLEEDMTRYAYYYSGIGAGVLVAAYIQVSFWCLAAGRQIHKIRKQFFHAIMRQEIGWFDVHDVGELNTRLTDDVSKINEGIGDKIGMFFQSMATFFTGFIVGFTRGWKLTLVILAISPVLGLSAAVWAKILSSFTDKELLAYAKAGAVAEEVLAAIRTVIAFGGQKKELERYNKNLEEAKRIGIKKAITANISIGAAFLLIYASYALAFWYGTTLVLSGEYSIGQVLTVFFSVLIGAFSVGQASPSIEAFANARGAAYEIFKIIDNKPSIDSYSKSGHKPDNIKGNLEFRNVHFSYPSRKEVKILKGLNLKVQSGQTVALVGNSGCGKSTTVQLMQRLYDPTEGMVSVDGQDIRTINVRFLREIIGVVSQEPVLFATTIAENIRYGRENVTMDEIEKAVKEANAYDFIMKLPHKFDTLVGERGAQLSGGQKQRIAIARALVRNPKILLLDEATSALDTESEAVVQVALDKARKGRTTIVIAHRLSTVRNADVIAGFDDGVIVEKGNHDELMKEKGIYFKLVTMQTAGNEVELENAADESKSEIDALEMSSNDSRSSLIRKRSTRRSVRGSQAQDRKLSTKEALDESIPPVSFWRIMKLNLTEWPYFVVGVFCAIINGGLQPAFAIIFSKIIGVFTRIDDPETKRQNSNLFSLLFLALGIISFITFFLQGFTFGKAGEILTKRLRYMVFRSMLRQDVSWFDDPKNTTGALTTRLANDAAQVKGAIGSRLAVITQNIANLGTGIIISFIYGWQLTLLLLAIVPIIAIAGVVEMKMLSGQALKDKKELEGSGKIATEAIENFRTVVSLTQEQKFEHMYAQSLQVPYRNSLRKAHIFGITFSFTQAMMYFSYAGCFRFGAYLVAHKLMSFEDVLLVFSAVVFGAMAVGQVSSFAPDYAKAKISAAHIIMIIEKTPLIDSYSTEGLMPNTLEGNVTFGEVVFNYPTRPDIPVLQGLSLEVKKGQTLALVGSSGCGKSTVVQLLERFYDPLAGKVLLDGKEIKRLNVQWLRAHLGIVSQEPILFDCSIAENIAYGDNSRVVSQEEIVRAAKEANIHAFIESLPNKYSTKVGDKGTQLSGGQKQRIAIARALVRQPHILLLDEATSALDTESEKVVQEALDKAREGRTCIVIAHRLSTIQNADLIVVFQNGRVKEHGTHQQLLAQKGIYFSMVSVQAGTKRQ

Take `COc1ccc2cc1Oc1cccc(c1)C[C@H]1c3c(cc4c(c3Oc3cc5c(cc3OC)CCN(C)[C@@H]5C2)OCO4)CCN1C` [CEPHARANTHIN]: the Activity entry in series [1] was “substrate [+]”. In series [2], this compound registered an IC50 of 2060 nM.

As usually defined, the IC50 is the point on the concentration scale where inhibition reaches its midpoint. Low values mean higher potency, high ones lower potency.
